Reference: patent publication US8211646B1, “Methods of treating ovarian cancer by modulating SnoN” (University of South Florida, priority 2008, dated 2012)

How the values were obtained:
Assay type in all cases: cell-based
[1] = system: ovarian cancer cells; assay: Cell titer glo cell viability assay
Protocol: Measurement of Intracellular ATP Levels. T80, HEY, and SKOV3 ovarian cells were seeded in triplicate for each treatment group at 5000 cells per well into each well of a 96 well white-opaque plate. Following overnight cell attachment, cells were treated for 18 hours with appropriate doses of arsenic trioxide or geldanamycin (0 mM, 2 μM, 5 μM, 10 μM, 25 μM, and 50 μM). Following termination of the cell treatments, the media was removed from the wells and replaced with 100 μl of phosphate-buffered saline (PBS). The plate was equilibrated to room temperature, 100 μl of Cell-Titer Glo reagent (Promega, Madison, Wis.) was added, and mixed on a plate shaker for 2 minutes. The plate was further incubated for 10 minutes at room temperature prior to reading with a Biotek luminescence plate reader to obtain relative light unit (RLU) measurements. Empty wells (containing no cells) were utilized as a correction for background luminescence. All experiments were performed in triplicate.

[2] = system: SnoN; assay: Western analysis of SnoN protein levels; settings: for concentration at which induction of SnoN occurred: 18 hours
Protocol: (§1) Proteins were resolved on an 8%, 12%, or 15% SDS-PAGE gel (as appropriate) and electrophoretically transferred to polyvinyldifluoride (PVDF) membranes. After blocking with 5% (w/v) milk in TBST (Tris-Buffered Saline containing 0.1% Tween-20) for one hour at room temperature, membranes were incubated with primary antibodies (at appropriate dilution) overnight at 4° C., followed by extensive washing and incubation for 1 hour with the appropriate horseradish peroxidase-conjugated secondary antibodies (BioRad, Hercules, Calif.). Blots were washed extensively. A rabbit polyclonal EVI1 antibody was obtained (1:3000 dilution, St. Jude's Children's Hospital, Memphis, Tenn.). SnoN rabbit polyclonal (1:1000 dilution), PML, and p21 SMURF2 rabbit polyclonal (1:500 dilution), MRP1 mouse monoclonal (1:500 dilution) and GAPDH mouse monoclonal (1:250 dilution) antibodies were obtained from Santa Cruz Biotechnology (Santa Cruz, Calif.). TGFβRII rabbit polyclonal (1:1000 dilution) antibody was obtained from Strategic Diagnostics (Newark, Del.). Smad2/3 rabbit polyclonal (1:1000 dilution), Beclin-1 rabbit polyclonal (1:1000 dilution), AKT rabbit polyclonal (1:1000 dilution), TAK1 rabbit polyclonal (1:1000 dilution), PARP rabbit polyclonal (1:1000 dilution), Beclin-1 rabbit polyclonal (1:1000 dilution), caspase-3 rabbit polyclonal (1:1000) which detects the pro-caspase form, and ATG5 rabbit polyclonal (1:1000 dilution), LC3-II rabbit polyclonal (1:1000 dilution) antibodies were obtained from Cell Signaling Technology (Danvers, Mass.). The HSP27 mouse monoclonal (1:1000 dilution) antibody was obtained from Stressgen (Ann Arbor, Mich.). Blots were developed using chemiluminescence substrates (Amersham Piscataway, N.J. or BioRad, Hercules, Calif.). Monoclonal PAI-1 antibody was obtained from BD Pharmingen. PSMAD2, total SMAD2/3, p-ERK, p-AKT, and total AKT antibodies were obtained from Cell Signaling Technology. A monoclonal antibody against Arkadia was obtained from Abnova (Taiwan).
(§2) Densitometric analysis was performed using the HP Scanjet 5590 and the Image J program (Image Processing and Analysis in Java, NIH Image Software). Bands were selected and the intensity values were normalized to those for GAPDH. The values are presented as fold-changes relative to control siRNA treated cells.
The clinical inhibitors As2O3, geldanamycin (17-AAG) (dissolved in dimethylsulfoxide [DMSO]), and MG132 (dissolved in DMSO) were obtained from Sigma-Aldrich (St. Louis, Mo.), Fisher Scientific (Pittsburgh, Pa.), and Alexis Biochemicals (Farmingdale, N.Y.), respectively. N-acetyl-L-cysteine (NAC; dissolved in media) and Bortezomib (PS-341; dissolved in DMSO) were obtained from Fisher Scientific. 3-Methyladenine (3-MA; dissolved in media) was obtained from MP Biomedicals (Solon, Ohio). Tiron (4,5-Dihydroxy-1,3-benzenedisulfonic acid, dissolved in media) was obtained from Fisher Scientific. zVAD-fmk (dissolved in DMSO) and bafilomycin A (dissolved in DMSO) was obtained from Axxora LLC (San Diego, Calif.). Bovine catalase was obtained from Sigma-Aldrich. HBED and Mn TBAP was obtained from ENZO Life Sciences (Farmingdale, N.Y.). Ovarian cells were plated in 6-well plates at 250,000 cells per well and grown in complete medium. […] For control cells, DMSO (a final concentration of <0.5%) was added to compare appropriately to drugs dissolved in DMSO. After the appropriate incubation time (6 or 18 hours), cell lysates were collected, protein quantified, and SDS-PAGE/western analysis was performed. In addition, for selected studies, RNA was isolated, quantified, and used for qPCR analysis.

[3] = system: TAK1, SMAD2/3, TGFβRII, AKT, phospho-SMAD2; assay: Western analysis of other TGFβ signaling mediators
Protocol: as §1, §2
The clinical inhibitors As2O3, geldanamycin (17-AAG) (dissolved in dimethylsulfoxide [DMSO]), and MG132 (dissolved in DMSO) were obtained from Sigma-Aldrich (St. Louis, Mo.), Fisher Scientific (Pittsburgh, Pa.), and Alexis Biochemicals (Farmingdale, N.Y.), respectively. N-acetyl-L-cysteine (NAC; dissolved in media) and Bortezomib (PS-341; dissolved in DMSO) were obtained from Fisher Scientific. 3-Methyladenine (3-MA; dissolved in media) was obtained from MP Biomedicals (Solon, Ohio). Tiron (4,5-Dihydroxy-1,3-benzenedisulfonic acid, dissolved in media) was obtained from Fisher Scientific. zVAD-fmk (dissolved in DMSO) and bafilomycin A (dissolved in DMSO) was obtained from Axxora LLC (San Diego, Calif.). Bovine catalase was obtained from Sigma-Aldrich. HBED and Mn TBAP was obtained from ENZO Life Sciences (Farmingdale, N.Y.). Ovarian cells were plated in 6-well plates at 250,000 cells per well and grown in complete medium. The following day, the cells were treated with 5 μM MG132, As2O3 (between 2-50 μM), 17-AAG (between 2-50 μM), NAC (Fisher Scientific, between 25 μM to 1 mM), Tiron (between 25 μM to 1 mM), 3-MA (0.1 mM to 10 mM), or zVAD-fmk (25 μM to 100 μM). For control cells, DMSO (a final concentration of <0.5%) was added to compare appropriately to drugs dissolved in DMSO. After the appropriate incubation time (6 or 18 hours), cell lysates were collected, protein quantified, and SDS-PAGE/western analysis was performed. In addition, for selected studies, RNA was isolated, quantified, and used for qPCR analysis.

[4] = HEY and OVCA429, 18 hours, increasing doses

Substance: Arsenic trioxide [As2O3]
- reduction of cell growth (cellular viability) ([1]; 25 μM, 18 hour treatment, relative to control cells): 50%
- sensitivity of cellular viability to As2O3 ([1]; SKOV3 (high EVI1) compared to T80 (low EVI1), 2-50 μM, 18 hours): more resistant
- SnoN/SkiL protein levels [2, 4]: significantly increased
- concentration at which induction of SnoN occurred ([2]; HEY and SKOV3 cells): > 25 µM
- time of As2O3 treatment at which induction of SnoN was seen ([2]; HEY, time course): 9 h
- concentration at which induction of SnoN occurred ([2]; T80 cells): 10 µM
- TAK1, SMAD2/3, TGFβRII and AKT protein [3, 4]: markedly reduced
- EVI1, TAK1, SMAD2/3, TGFβRII expression levels ([3]; HEY, 18 hours As2O3): Dramatic decreases
